Assay results reported in ChEMBL document CHEMBL4616689, “PROTAC Compounds Targeting Androgen Receptor for Cancer Therapeutics: Prostate Cancer and Kennedy's Disease” (ACS Med Chem Lett, 2020).

What was measured:
Assay type in all cases: cell-based
[1] = biological target: T1, von Hippel-Lindau disease tumor suppressor/Androgen receptor (Homo sapiens, UniProt P10275+P40337); assay: Protac activity at E3-ubiquitin ligase/AR in human LNCAP cells assessed as time taken for maximum degradation by ELISA
Target sequence in this assay (P10275 whole entry, looked up): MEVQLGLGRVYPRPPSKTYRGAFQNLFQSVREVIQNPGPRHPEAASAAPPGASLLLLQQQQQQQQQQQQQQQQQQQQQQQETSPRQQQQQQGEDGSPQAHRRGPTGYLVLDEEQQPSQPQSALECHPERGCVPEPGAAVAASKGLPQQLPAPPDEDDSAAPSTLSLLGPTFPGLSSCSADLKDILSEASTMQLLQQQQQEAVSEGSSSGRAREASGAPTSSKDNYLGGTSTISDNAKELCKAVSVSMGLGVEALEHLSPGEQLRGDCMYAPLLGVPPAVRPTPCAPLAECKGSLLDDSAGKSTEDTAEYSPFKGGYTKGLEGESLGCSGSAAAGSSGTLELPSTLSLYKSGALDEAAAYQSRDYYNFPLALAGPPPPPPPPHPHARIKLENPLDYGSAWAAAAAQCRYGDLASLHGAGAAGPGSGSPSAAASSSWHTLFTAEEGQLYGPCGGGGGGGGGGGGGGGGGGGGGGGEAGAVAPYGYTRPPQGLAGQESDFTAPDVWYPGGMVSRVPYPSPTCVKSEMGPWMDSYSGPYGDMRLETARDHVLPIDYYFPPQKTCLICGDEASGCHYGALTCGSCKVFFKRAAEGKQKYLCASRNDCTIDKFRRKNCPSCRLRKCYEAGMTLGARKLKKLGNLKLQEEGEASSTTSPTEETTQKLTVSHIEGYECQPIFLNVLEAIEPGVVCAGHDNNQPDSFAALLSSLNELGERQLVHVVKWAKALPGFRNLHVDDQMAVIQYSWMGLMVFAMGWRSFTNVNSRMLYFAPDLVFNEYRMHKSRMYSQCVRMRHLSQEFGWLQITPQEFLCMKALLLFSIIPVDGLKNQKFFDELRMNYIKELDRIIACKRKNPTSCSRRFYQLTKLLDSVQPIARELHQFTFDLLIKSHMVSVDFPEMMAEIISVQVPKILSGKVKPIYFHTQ
Target sequence in this assay (P40337 whole entry, looked up): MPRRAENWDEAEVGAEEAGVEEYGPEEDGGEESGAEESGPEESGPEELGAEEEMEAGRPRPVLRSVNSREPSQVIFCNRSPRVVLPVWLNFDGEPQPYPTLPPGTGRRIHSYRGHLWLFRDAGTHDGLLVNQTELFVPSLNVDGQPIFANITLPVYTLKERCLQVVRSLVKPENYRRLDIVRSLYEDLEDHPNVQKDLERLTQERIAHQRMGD

[2] = biological target: T1, von Hippel-Lindau disease tumor suppressor/Androgen receptor; assay: Protac activity at E3-ubiquitin ligase/AR in human VCaP cells assessed as time taken for maximal degradation by ELISA
Target sequence in this assay (P10275 whole entry, looked up): as the sequence (P10275 whole entry, looked up) above
Target sequence in this assay (P40337 whole entry, looked up): as the sequence (P40337 whole entry, looked up) above

[3] = biological target: T1, von Hippel-Lindau disease tumor suppressor/Androgen receptor; assay: Protac activity at E3 ubiquitin-protein ligase/AR in human VCAP cells assessed as induction of AR degradation after 24 hrs by ELISA
Target sequence in this assay (P10275 whole entry): as the sequence (P10275 whole entry, looked up) above
Target sequence in this assay (P40337 whole entry): as the sequence (P40337 whole entry, looked up) above

[4] = biological target: T1, von Hippel-Lindau disease tumor suppressor/Androgen receptor; assay: Protac activity at E3-ubiquitin ligase/AR in human LNCAP cells assessed as AR degradation up to 15 mins by ELISA relative to control; set-up: concentration or dose not given beside the values
Target sequence in this assay (P10275 whole entry, looked up): as the sequence (P10275 whole entry, looked up) above
Target sequence in this assay (P40337 whole entry, looked up): as the sequence (P40337 whole entry, looked up) above

[5] = biological target: T1, von Hippel-Lindau disease tumor suppressor/Androgen receptor; assay: Protac activity at E3 ubiquitin-protein ligase/AR in human LNCAP cells assessed as induction of AR degradation after 24 hrs by ELISA
Target sequence in this assay (P10275 whole entry): as the sequence (P10275 whole entry, looked up) above
Target sequence in this assay (P40337 whole entry): as the sequence (P40337 whole entry, looked up) above

[6] = biological target: T1, von Hippel-Lindau disease tumor suppressor/Androgen receptor; assay: Protac activity at E3 ubiquitin-protein ligase/AR in human LNCAP cells assessed as induction of AR degradation after 24 hrs by ELISA relative to control
Target sequence in this assay (P10275 whole entry, looked up): as the sequence (P10275 whole entry, looked up) above
Target sequence in this assay (P40337 whole entry, looked up): as the sequence (P40337 whole entry, looked up) above

[7] = biological target: T1, von Hippel-Lindau disease tumor suppressor/Androgen receptor; assay: Protac activity at E3-ubiquitin ligase/AR in human VCaP cells assessed as AR degradation up to 15 mins by ELISA relative to control; set-up: concentration or dose not given beside the values
Target sequence in this assay (P10275 whole entry, looked up): as the sequence (P10275 whole entry, looked up) above
Target sequence in this assay (P40337 whole entry, looked up): as the sequence (P40337 whole entry, looked up) above

[8] = biological target: T1, von Hippel-Lindau disease tumor suppressor/Androgen receptor; assay: Protac activity at E3 ubiquitin-protein ligase/AR in human VCAP cells assessed as induction of AR degradation after 24 hrs by ELISA relative to control
Target sequence in this assay (P10275 whole entry, looked up): as the sequence (P10275 whole entry, looked up) above
Target sequence in this assay (P40337 whole entry, looked up): as the sequence (P40337 whole entry, looked up) above

Structure (SMILES) | TIME [1] [h] | TIME [2] [h] | DC50 [3] [µM] | Activity [4] [%] | DC50 [5] [µM] | Emax [6] [%] | Activity [7] [%] | Emax [8] [%]
Cc1ncsc1-c1ccc(CNC(=O)[C@@H]2C[C@@H](O)CN2C(=O)[C@@H](NC(=O)COCCCOCCCCOc2ccc(N3C(=S)N(c4cnc(C#N)c(C(F)(F)F)c4)C(=O)C3(C)C)cc2)C(C)(C)C)cc1 | 4 | 4 | ≤ 50 | 50 | ≤ 50 | > 71 | 50 | > 71
Cc1ncsc1-c1ccc([C@H](C)NC(=O)[C@@H]2C[C@@H](O)CN2C(=O)[C@@H](NC(=O)COCCCOCCCCCOc2ccc(N3C(=S)N(c4ccc(C#N)c(C(F)(F)F)c4)C(=O)C3(C)C)cc2F)C(C)(C)C)cc1 | 4 | 4 | ≤ 50 | 50 | ≤ 50 | > 71 | 50 | < 70
Cc1ncsc1-c1ccc(CNC(=O)[C@@H]2C[C@@H](O)CN2C(=O)[C@@H](NC(=O)COCCCOCCCCOc2ccc(N3C(=S)N(c4ccc(C#N)c(C(F)(F)F)c4)C(=O)C3(C)C)cc2F)C(C)(C)C)cc1 | 4 | 4 | ≤ 50 | 50 | ≤ 50 | > 71 | 50 | > 71
Cc1ncsc1-c1ccc([C@H](C)NC(=O)[C@@H]2C[C@@H](O)CN2C(=O)[C@@H](NC(=O)COCCCOCCCCCOc2c(F)cc(N3C(=S)N(c4ccc(C#N)c(C(F)(F)F)c4)C(=O)C3(C)C)cc2F)C(C)(C)C)cc1 | 4 | 4 | ≤ 50 | 50 | ≤ 50 | > 71 | 50 | < 70
Cc1ncsc1-c1ccc(CNC(=O)[C@@H]2C[C@@H](O)CN2C(=O)[C@@H](NC(=O)COCCCOCCCCCOc2ccc(N3C(=S)N(c4cnc(C#N)c(C(F)(F)F)c4)C(=O)C3(C)C)cc2)C(C)(C)C)cc1 | 4 | 4 | ≤ 50 | 50 | ≤ 50 | > 71 | 50 | < 70
Cc1ncsc1-c1ccc(CNC(=O)[C@@H]2C[C@@H](O)CN2C(=O)[C@@H](NC(=O)COCCCOCCCCOc2ccc(N3C(=S)N(c4ccc(C#N)c(Cl)c4)C(=O)C3(C)C)cc2)C(C)(C)C)cc1 | 4 | 4 | ≤ 50 | 50 | ≤ 50 | > 71 | 50 | > 71
Cc1ncsc1-c1ccc(CNC(=O)[C@@H]2C[C@@H](O)CN2C(=O)[C@@H](NC(=O)COCCCCOc2ccc(-c3ccc(N4C(=S)N(c5ccc(C#N)c(C(F)(F)F)c5)C(=O)C4(C)C)cc3)cc2)C(C)(C)C)cc1 | 4 | 4 | ≤ 50 | 50 | ≤ 50 | > 71 | 50 | > 71
Cc1ncsc1-c1ccc(CNC(=O)[C@@H]2C[C@@H](O)CN2C(=O)[C@@H](NC(=O)COCCCOCCCCCOc2ccc(N3C(=S)N(c4ccc(C#N)c(C(F)(F)F)c4)C(=O)C3(C)C)cc2)C(C)(C)C)cc1 | 4 | 4 | ≤ 50 | 50 | ≤ 50 | > 71 | 50 | < 70
